Here are results for 3 molecules from US4180506A, “6β-Bromo penicillanic acid” (priority 1978, dated 1979).

Where two headings read alike, the source gives them in different places.

The subject of one test is Vibrio percolans MB-1272. Nature of the test: Bilayer agar diffusion test, potentiation of Pen G in the presence of penicillinase. It counts as cell-based. On the technique in general: Agar diffusion results depend on both activity and mobility in agar.
For test [1], the system named is two penicillinase-producing animal-pathogenic strains of Staphylococcus aureus. It counts as cell-based, Staphylococcus aureus MB-3648 and MB-3649.
For another test, the system named is S. aureus MB-3648. The test is described as follows: Disc agar diffusion test, potentiation of Pen G and ampicillin. It counts as cell-based, Staphylococcus aureus MB-3648.
A further test deals with S. aureus MB-3649. The test is described as above. It counts as cell-based, Staphylococcus aureus MB-3649.
Setting [2] is: subinhibitory concentration (1/4 MZC), extrapolated on standard/regression curve.
[3] abbreviates: Ampicillin 15.7 μg/ml plus 4 μg/ml clavulanic acid.
Where [4] appears, read: Ampicillin 15.7 μg/ml plus 32 μg/ml 6 BPA.
The mark [5] stands for this setting: Ampicillin 31.3 μg/ml plus 4 μg/ml clavulanic acid.
The mark [6] stands for this setting: Ampicillin 31.3 μg/ml plus 32 μg/ml 6 BPA.
Setting [7] is: Ampicillin 62.5 μg/ml plus 4 μg/ml clavulanic acid.
Where [8] appears, read: Ampicillin 62.5 μg/ml plus 32 μg/ml 6 BPA.
Setting [9] is: Ampicillin 125 μg/ml plus 4 μg/ml clavulanic acid.
[10] abbreviates: Ampicillin 125 μg/ml plus 32 μg/ml 6 BPA.
[11] abbreviates: Ampicillin 250 μg/ml plus 4 μg/ml clavulanic acid.
Setting [12] is: Ampicillin 250 μg/ml plus 32 μg/ml 6 BPA.

Regarding `O=C(O)[C@H]1/C(=C/CO)O[C@@H]2CC(=O)N21` [Clavulanic Acid], the “Zone of inhibition, Antibiotic + Penase + Pen G” value in the test with Vibrio percolans MB-1272 (1 μg/ml, Penase 10^4 units/ml, Pen G 5 μg/ml) amounted to 0 mm; in the test on Vibrio percolans MB-1272 (2 μg/ml, Penase 10^4 units/ml, Pen G 5 μg/ml) it was 0 mm; in the test on Vibrio percolans MB-1272 (4 μg/ml, Penase 10^4 units/ml, Pen G 5 μg/ml), 0 mm; in the test on Vibrio percolans MB-1272 (8 μg/ml, Penase 10^4 units/ml, Pen G 5 μg/ml), 0 mm; in the test on Vibrio percolans MB-1272 (16 μg/ml, Penase 10^4 units/ml, Pen G 5 μg/ml), 10 mm; in the test with Vibrio percolans MB-1272 (31 μg/ml, Penase 10^4 units/ml, Pen G 5 μg/ml), 21 mm. In addition, the zone of inhibition at 1 µg/mL was found to be 0 mm in the test with Vibrio percolans MB-1272 (Comamonas terrigena, MB1272, 1 μg/ml, Penase 10^4 units/ml, read-out: Zone of inhibition, Antibiotic + Penase) and 0 mm with Vibrio percolans MB-1272 (Comamonas terrigena, MB1272, 1 μg/ml, read-out: Zone of inhibition, Antibiotic Alone). The zone of inhibition at 2 µg/mL was found to be 0 mm in the test with Vibrio percolans MB-1272 (Comamonas terrigena, MB1272, 2 μg/ml, Penase 10^4 units/ml, read-out: Zone of inhibition, Antibiotic + Penase) and 0 mm in the test on Vibrio percolans MB-1272 (Comamonas terrigena, MB1272, 2 μg/ml, read-out: Zone of inhibition, Antibiotic Alone). Further, the zone of inhibition at 4 µg/mL amounted to 0 mm with Vibrio percolans MB-1272 (Comamonas terrigena, MB1272, 4 μg/ml, Penase 10^4 units/ml, read-out: Zone of inhibition, Antibiotic + Penase) and 0 mm with Vibrio percolans MB-1272 (Comamonas terrigena, MB1272, 4 μg/ml, read-out: Zone of inhibition, Antibiotic Alone). For the same molecule, in the test with Vibrio percolans MB-1272 (Comamonas terrigena, MB1272, 8 μg/ml, read-out: Zone of inhibition, Antibiotic Alone), the zone of inhibition at 8 µg/mL is 0 mm. In addition, the zone of inhibition at 16 µg/mL with Vibrio percolans MB-1272 (Comamonas terrigena, MB1272, 16 μg/ml, Penase 10^4 units/ml, read-out: Zone of inhibition, Antibiotic + Penase) came out at 10 mm; with Vibrio percolans MB-1272 (Comamonas terrigena, MB1272, 16 μg/ml, read-out: Zone of inhibition, Antibiotic Alone), 8 mm. The zone of inhibition at 31 µg/mL with Vibrio percolans MB-1272 (Comamonas terrigena, MB1272, 31 μg/ml, Penase 10^4 units/ml, read-out: Zone of inhibition, Antibiotic + Penase) is 21 mm; in the test with Vibrio percolans MB-1272 (Comamonas terrigena, MB1272, 31 μg/ml, read-out: Zone of inhibition, Antibiotic Alone) it was 20 mm. For the same molecule, in the test with Vibrio percolans MB-1272 (Pen G 5 μg/ml, Penase 10^4 units/ml), the “Concentration required to produce a zone of inhibition in the presence of Pen G and Penase” value is 16 µg/mL. For the same molecule, the “Amount of clavulanic acid required relative to 6 BPA to produce a zone of inhibition” value in the test on Vibrio percolans MB-1272 (in the presence of Pen G and Penase) is on record as 64 times. In addition, the “Potentiation of Pen G” value in test [1] (setting [2]) is recorded as 64 fold. Further, in test [1] (setting [2]), the Potentiation of ampicillin was 32 fold. Besides, in test [1] (substance alone vs either MB3648 or MB3649), the “1/4 of minimum zone-inducing concentration (1/4MZC)” value was 4 µg/mL.

`CC1(C)S[C@@H]2[C@H](NC(=O)Cc3ccccc3)C(=O)N2[C@H]1C(=O)O` [Pen G]: the zone of inhibition at 5 µg/mL in the test with Vibrio percolans MB-1272 (Comamonas terrigena, MB1272, Penase 10^4 units/ml, Pen G 5 μg/ml, no inhibitor, read-out: Zone of inhibition, Penase + Pen G Alone) was 0 mm.

In the case of `CC1(C)S[C@@H]2[C@H](NC(=O)[C@H](N)c3ccccc3)C(=O)N2[C@H]1C(=O)O` [Ampicillin], the Inhibition Zone Diameter, plus Clavulanic Ac is 22 mm in the test with S. aureus MB-3648 (setting [3]); 23 mm with S. aureus MB-3648 (setting [5]); 26 mm in the test with S. aureus MB-3648 (setting [7]); 27 mm with S. aureus MB-3648 (setting [9]); 27 mm with S. aureus MB-3648 (setting [11]); 20 mm in the test on S. aureus MB-3649 (setting [3]). Also, the Inhibition Zone Diameter, plus Clavulanic Ac worked out at 23 mm in the test with S. aureus MB-3649 (setting [5]), 24 mm in the test on S. aureus MB-3649 (setting [7]), 25 mm in the test on S. aureus MB-3649 (setting [9]) and 24 mm in the test with S. aureus MB-3649 (setting [11]). In addition, the Inhibition Zone Diameter, plus 6 BPA with S. aureus MB-3648 (setting [4]) amounted to 23 mm; in the test on S. aureus MB-3648 (setting [6]), 23 mm; in the test on S. aureus MB-3648 (setting [8]) it was 24 mm; with S. aureus MB-3648 (setting [10]), 25 mm; with S. aureus MB-3648 (setting [12]) it was 26 mm; in the test on S. aureus MB-3649 (setting [4]), 19 mm. The Inhibition Zone Diameter, plus 6 BPA with S. aureus MB-3649 (setting [6]) came out at 21 mm; with S. aureus MB-3649 (setting [8]), 23 mm; in the test on S. aureus MB-3649 (setting [10]), 24 mm; with S. aureus MB-3649 (setting [12]), 29 mm. Also, the zone of inhibition at 15.7 µg/mL in the test with S. aureus MB-3648 (Staphylococcus aureus, MB3648, Ampicillin 15.7 μg/ml, read-out: Inhibition Zone Diameter, alone) was determined as 0 mm; with S. aureus MB-3649 (Staphylococcus aureus, MB3649, Ampicillin 15.7 μg/ml, read-out: Inhibition Zone Diameter, alone), 0 mm. The zone of inhibition at 31.3 µg/mL amounted to 0 mm in the test on S. aureus MB-3648 (Staphylococcus aureus, MB3648, Ampicillin 31.3 μg/ml, read-out: Inhibition Zone Diameter, alone) and 0 mm in the test with S. aureus MB-3649 (Staphylococcus aureus, MB3649, Ampicillin 31.3 μg/ml, read-out: Inhibition Zone Diameter, alone). Moreover, the zone of inhibition at 62.5 µg/mL in the test with S. aureus MB-3648 (Staphylococcus aureus, MB3648, Ampicillin 62.5 μg/ml, read-out: Inhibition Zone Diameter, alone) is 0 mm; with S. aureus MB-3649 (Staphylococcus aureus, MB3649, Ampicillin 62.5 μg/ml, read-out: Inhibition Zone Diameter, alone) it was 0 mm. The zone of inhibition at 125 µg/mL with S. aureus MB-3648 (Staphylococcus aureus, MB3648, Ampicillin 125 μg/ml, read-out: Inhibition Zone Diameter, alone) was 18 mm; in the test on S. aureus MB-3649 (Staphylococcus aureus, MB3649, Ampicillin 125 μg/ml, read-out: Inhibition Zone Diameter, alone) it was 17 mm. Further, the zone of inhibition at 250 µg/mL was found to be 20 mm with S. aureus MB-3648 (Staphylococcus aureus, MB3648, Ampicillin 250 μg/ml, read-out: Inhibition Zone Diameter, alone) and 18 mm in the test with S. aureus MB-3649 (Staphylococcus aureus, MB3649, Ampicillin 250 μg/ml, read-out: Inhibition Zone Diameter, alone). The zone of inhibition at 500 µg/mL in the test with S. aureus MB-3648 (Staphylococcus aureus, MB3648, Ampicillin 500 μg/ml, read-out: Inhibition Zone Diameter, alone) was found to be 23 mm; in the test on S. aureus MB-3649 (Staphylococcus aureus, MB3649, Ampicillin 500 μg/ml, read-out: Inhibition Zone Diameter, alone), 20 mm. Also, the zone of inhibition at 1000 µg/mL with S. aureus MB-3648 (Staphylococcus aureus, MB3648, Ampicillin 1000 μg/ml, read-out: Inhibition Zone Diameter, alone) came to 26 mm; with S. aureus MB-3649 (Staphylococcus aureus, MB3649, Ampicillin 1000 μg/ml, read-out: Inhibition Zone Diameter, alone) it was 25 mm.
